# Measured values published in patent US12662707B2, “MYC amplification drives resistance to pan-RAS inhibitors in pancreatic cancer” (The Trustees of Columbia University in the City of New York, priority 2024, dated 2026).
# How the values were obtained:
# [1] = tested on: autochthonous KPCY pancreatic tumors; test: Short-term study in KPCY mice; format: in vivo, mouse; details: daily 25 mg/kg, two weeks
# Method: Animals were randomized into groups and treated with Vehicle (n=6) or RMC-7977 (25 mg/kg; n=8). Treatments were performed every day via oral gavage for 15 days and ultrasounds were performed on day 8 and 15. Animals were sacrificed after last dose and tissue was collected and preserved as previously described (See Xenograft studies section).
# [2] = tested on: human PDAC xenograft models; test: Human PDAC xenograft (CDX/PDX) tumor growth studies; format: in vivo, mouse; details: 10 mg/kg daily
# Method: Studies were conducted at the following CROs: GenenDesign (Shanghai, China), Pharmaron (Beijing, China), and Wuxi AppTec (SuZhou, China). All CDX/PDX mouse studies and procedures related to animal handling, care and treatment were conducted in compliance with all applicable regulations and guidelines of the relevant Institutional Animal Care and Use Committee (IACUC). Female BALB/c nude mice and NOD SCID mice 6-8 weeks old from Beijing Vital River/VR Laboratory Animal Co., LTD, Beijing AniKeeper Biotech Co., Ltd., and Shanghai Sino-British SIPPR/BK Laboratory Animal Co., LTD were used for these studies.
# In order to generate subcutaneous xenograft tumors each mouse was inoculated at the right flank with tumor cells (2×10^6-1×10^7) in 100-200 μl of media/PBS supplemented with Matrigel (1:1). Treatments were started when the average tumor volume reached 150-250 mm^3 (for tumor growth evaluation) and 400-600 mm^3 (for single dose pharmacokinetic/pharmacodynamic (PK/PD) study). Tumor diameter was measured in two dimensions using a digital caliper, and the tumor volume in mm^3 was calculated using the formula: Volume=((width)2×length)/2. Mice on studies were weighed and tumors were measured 2 times a week.
# The human primary cancer xenograft models were generated using fresh tumor fragments obtained from hospitals with informed consent from the patients in accordance with protocols approved by the Hospital Institutional Ethical Committee (IEC). The tumor fragments were serial passaged in BABL/c nude mice and then cryopreserved for further use. For this study, recovered tumor fragments of about 15-30 mm^3 in size from each model were implanted into right flanks of BALB/c nude mice. Treatment started when average tumor volume reached 150-250 mm^3.
# To generate orthotopic xenograft tumors, survival surgeries were carried out and 2×10^6 5×10^6 luciferase-expressing tumor cells in 30-50 μL Media/Matrigel mixtures (1:1) were implanted directly into the mouse pancreas. Treatments were started when the tumors produced an average of 50-80×10^7 photon/second as measured by the in vivo imaging system (IVIS). All subsequent tumor measures were also conducted by IVIS. For routine monitoring, mice were injected intraperitoneally with 15 mg/mL (at 5 μL/g BW) of D-Luciferin (Perkin Elmer) and imaged, after which Living Image software (Perkin Elmer) was used to compute regions of interest (ROI) and tumor volumes.
# Tumor-bearing animals were randomized and assigned into groups (n=3-10/group). Vehicle or RMC-7977 was administered via oral gavage daily at 10 mg/kg and animals were treated for 21-28 days. Studies were terminated early if tumor burden reached humane endpoint. Body weights were collected twice a week during the study. Means±s.e.m were plotted in the waterfall plots. For the single-dose pharmacokinetic/pharmacodynamic (PK/PD) study, mice were randomized and assigned into groups (n=3-6/dose/timepoint). A single dose of RMC-7977 was administered orally at 10 mg/kg, 25 mg/kg and 50 mg/kg. Tissues (including tumor, colon and skin) were harvested at indicated time points and either fixed in 10% formalin, embedded in Optimal Cutting Temperature (OCT; Sakura, 4583) solution or snap-frozen in LN2 for further analysis. Whole blood was transferred into K2EDTA Microtainer tubes (BD, 365974), incubated for 5 minutes and snap-frozen in LN2.
# [3] = tested on: KPC tumor-derived cell lines; test: Viability of cell lines from RMC-7977 resistant or naive KPC tumors; format: cell-based, murine
# Excerpt: Patient-derived xenograft (PDX) human PDAC cell lines were provided by Dr. Anirban Maitra (MD Anderson Cancer Center): Pa01C, Pa02C, Pa14C, and Pa16C. hF39 and hF43 cell lines were provided by Dr. David Tuveson (Cold Spring Harbor Laboratory). The UM147 PDX cell line was obtained from University of Michigan (PMID: 17283135). PaCaDD-137 and PaCaDD-165 were obtained from the German Collection of Microorganisms and Cell Cultures GmbH (DSMZ, world wide web dsmz.de/). All remaining cell lines were obtained from the American Type Culture Collection (ATCC). […]
# PDAC murine cell lines harboring KrasG12D or KrasG12C mutations were seeded at 2×10^3 in a 96-well plate. […] Cell viability was evaluated 72 hours later by measuring adenosine triphosphate (ATP) levels using the CellTiter-Glo® Luminescent Cell Viability Assay (Promega, G7572) according to the manufacturer's instructions. For experiments comparing naive and resistant cell lines, live cells were fluorescently labelled using Calcein AM (20-minute incubation at 500 nM, Thermo Fisher) and counted using the SpectraMax i3X multimode detection platform (Molecular Devices). […] Growth percentage was calculated by normalizing drug-treated values to DMSO control, which was set to 100%. […]
smiles,measurement,setting,value
CCn1c(-c2cc(N3CCN(C4CC4)CC3)cnc2[C@H](C)OC)c2c3cc(ccc31)-c1csc(n1)C[C@H](NC(=O)[C@H]1[C@@H]3COC[C@@H]31)C(=O)N1CCC[C@H](N1)C(=O)OCC(C)(C)C2 [RMC-7977],tumor response,"[1]; KPCY, C57Bl/6",regressions in most tumors
same,impact on animal weight,[1],little impact
same,models with tumor regressions,[2]; 21-28 days,7/10
same,response of KRASQ61H mutant HS-766T line in CDX setting,[2]; HS-766T CDX,among the most responsive
same,tolerability,[2]; all 10 models,well tolerated
same,anti-tumor activity,"[2]; all 10 models, 21-28 days",significant anti-tumor activity
same,body weight over time,[2]; treated animals,stable body weight
same,sensitivity of treatment-naive MycGain line K2293,[3]; K2293,lower sensitivity
same,sensitivity of lines from resistant tumors vs control KPC cell line (K8484),"[3]; all six lines from resistant tumors, 3-5 days",less sensitive
